From US20100137388A1, “Therapeutic Pro-Antibiotic Agents and Methods of Use Thereof” (priority 2007, published 2010)
Values after ≈ are worked out from the molar mass of the structure shown.

What was measured:
[1] = target: E. coli LpxA (Escherichia coli, UniProt P0A722); test: LpxA enzyme inhibition (TLC of radiolabeled UDP-GlcNAc acylation); format: biochemical; conditions: percentage of control, lower is better; for % LpxA activity (500 μM) / remaining activity at 500 µM (stock): test compound dilution 500 μM; for % LpxA activity (5 mM) / remaining activity at 5000 µM (stock): test compound dilution 5 mM
Sequence of E. coli LpxA (P0A722 whole entry): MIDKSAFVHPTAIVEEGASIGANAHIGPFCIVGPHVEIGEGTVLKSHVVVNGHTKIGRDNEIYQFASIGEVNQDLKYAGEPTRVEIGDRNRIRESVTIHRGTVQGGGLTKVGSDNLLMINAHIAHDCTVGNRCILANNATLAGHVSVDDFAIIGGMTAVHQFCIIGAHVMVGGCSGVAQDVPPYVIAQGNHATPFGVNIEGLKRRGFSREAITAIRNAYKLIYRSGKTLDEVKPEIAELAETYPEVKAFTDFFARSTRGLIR
Procedure: Measurement of LpxA activity was based on increased mobility of radiolabeled UDP-N-acetyl-D-glucosamine on thin layer chromatography (TLC) plates upon acylation. One μl of test compound of appropriate dilution in ethanol was mixed with 2.5 μM β-hydroxy-myristoyl-ACP and 0.5 μM E. coli LpxA in 1% bovine serum albumin and 40 mM Na-Hepes (pH 8.0) at room temperature (total volume 8 μl). The reaction was initiated by adding 2 μl of UDP-[^3H]N-acetyl-D-glucosamine and aliquots were removed at various time intervals and spotted directly on silica gel G plates.
The procedure as given above was followed, with the appropriate dilutions of test compound being 5 mM and 500 μM.

[2] = test system: E. coli D22 mutant strain; test: Antibiotic MIC, NCCLS M7-A6 broth microdilution; format: cell-based; conditions: range tested 1 μM-2 mM
Procedure: (§1) Susceptibilities to the compounds were determined using the National Committee for Clinical Laboratory Standards (NCCLS) M7-A6 broth microdilution method. Cation-adjusted Mueller-Hinton broth (Ca^2+, 25 μg/mL; Mg^2+, 12.5 μg/mL) microdilution panels were prepared to contain antimicrobial doubling dilution concentrations of an appropriate range. DMSO (dimethylsulfoxide) controls were incorporated into the panel to mimic the quantity of DMSO used in dissolving some of the compounds at the higher concentrations. Each final panel well volume was 100 μL with a bacterial inoculum of 5×10^5 CFU (colony forming units)/mL. Panels were read following 16 to 20 h of incubation at 35 degrees Celsius in ambient air. The MIC (minimum inhibitory concentration) was defined as the lowest concentration of antimicrobial inhibiting visible growth.
(§2) Procedure followed was as described above, with the appropriate range being 1 μM-2 mM and using the E. coli D22 mutant strain and the E. coli K12 wild type strain. Value recorded was the lowest concentration of compound needed to produce the bactericidal or bacteriostatic effect (lower is better): […]

[3] = test system: mice; conditions: mouse, in vivo
[4] = test system: E. coli K12 wild type strain; test: Antibiotic MIC, NCCLS M7-A6 broth microdilution; format: cell-based; conditions: range tested 1 μM-2 mM
Procedure: as §1, §2

[5] = test system: E. coli K12 wild type strain; test: Pro-antibiotic MIC of antibiotic agents alone and with DNM0195; format: cell-based; conditions: antibiotic agent alone
Procedure: as §1, with “DMSO (dimethylsulfoxide) controls were incorporated into the panel to mimic the quantity of DMSO used in dissolving some of the compounds at the higher concentrations.” left out
Following Example 24, MICs of various antibiotic agents were determined against the E. coli K12 wild type strain, using the same procedure with the appropriate range for each antibiotic. For erythromycin, gentamicin, and kanamycin, this range was 0.24 μg/mL-500 μg/mL. Parallel to this effort, solutions were prepared which were identical. To each of these were added 0.5 μL of DNM0195 stock solution and mixed to produce a final concentration of 500 μM for determination of pro-antibiotic activity.

[6] = Escherichia coli, read-out: MIC

Question: For COC(=O)/C=C/c1cc(-c2nnn[nH]2)c(Cc2ccccc2)s1 [DNM0194, (Z) and (E)-methyl 3-(5-benzyl-4-(1H-tetrazol-5-yl)thiophen-2-yl)acrylate], which “% LpxA activity (500 μM)” value [1] is on record?
Answer: 36.0%

Question: And the “% LpxA activity (5 mM)” value [1]?
Answer: 1.4%

Question: And the MIC [2]?
Answer: 1000 to 2000 µM

Question: With O=C(O)/C=C/c1cc(-c2nnn[nH]2)c(Cc2ccccc2)s1 [DNM0195, (Z) and (E)-3-(5-benzyl-4-(1H-tetrazol-5-yl)thiophen-2-yl)acrylic acid] as the compound, how does the “% LpxA activity (500 μM)” value [1] read?
Answer: 7.6%

Question: And the “% LpxA activity (5 mM)” value [1]?
Answer: 3.1%

Question: What about the Liver biopsies [3] of the same compound?
Answer: normal

Question: What about the MIC [4] of the same compound?
Answer: 1000 to 2000 µM

Question: What about the MIC [2] of the same compound?
Answer: 1000 µM (≈ 312 µg/mL)

Question: Which results are given for Cn1nnnc1-c1cc(/C=C/C(=O)O)sc1Cc1ccccc1 [DNM0196, (E)-3-(5-benzyl-4-(1-methyl-1H-tetrazol-5-yl)thiophen-2-yl)acrylic acid]?
Answer: remaining activity at 500 µM (stock) [1]: 43.9%; remaining activity at 5000 µM (stock) [1]: 5.8%

Question: For Cn1nnc(-c2cc(/C=C/C(=O)O)sc2Cc2ccccc2)n1 [DNM0197, (E)-3-(5-benzyl-4-(2-methyl-2H-tetrazol-5-yl)thiophen-2-yl)acrylic acid], which remaining activity at 500 µM (stock) [1] is on record?
Answer: 62.4%

Question: What about the remaining activity at 5000 µM (stock) [1] of the same compound?
Answer: 20.2%

Question: O=C(O)/C=C/c1cc(-c2nnn[nH]2)c(-c2ccc(F)cc2)s1 [DNM0224, (E)-3-(5-(4-fluorophenyl)-4-(1H-tetrazol-5-yl)thiophen-2-yl)acrylic acid] was tested. Which remaining activity at 500 µM (stock) [1] did it give?
Answer: 88.7%

Question: What about the remaining activity at 5000 µM (stock) [1] of the same compound?
Answer: 37.9%

Question: With O=C(O)/C=C/c1cc(-c2nnn[nH]2)c(-c2ccc(-c3ccccc3)cc2)s1 [DNM0225, (E)-3-(5-(4-biphenylyl)-4-(1H-tetrazol-5-yl)thiophen-2-yl)acrylic acid] as the compound, how does the remaining activity at 500 µM (stock) [1] read?
Answer: 84.9%

Question: What about the remaining activity at 5000 µM (stock) [1] of the same compound?
Answer: 7.3%

Question: COC(=O)/C=C/c1cc(-c2nnn(C)n2)c(Cc2ccccc2)s1 [DNM0226, (E)-methyl 3-(5-benzyl-4-(2-methyl-2H-tetrazol-5-yl)thiophen-2-yl)acrylate] was tested. Which remaining activity at 500 µM (stock) [1] did it give?
Answer: 97%

Question: What about the remaining activity at 5000 µM (stock) [1] of the same compound?
Answer: 93%

Question: For COC(=O)/C=C/c1cc(-c2nnnn2C)c(Cc2ccccc2)s1 [DNM0227, (E)-methyl 3-(5-benzyl-4-(1-methyl-1H-tetrazol-5-yl)thiophen-2-yl)acrylate], which remaining activity at 500 µM (stock) [1] is on record?
Answer: 92.1%

Question: What about the remaining activity at 5000 µM (stock) [1] of the same compound?
Answer: 86.6%

Question: What does the source list for COC(=O)/C=C/c1sc(-c2ccc(F)cc2)cc1-c1nnn[nH]1 [DNM0229, (E)-methyl 3-(5-(4-fluorophenyl)-3-(1H-tetrazol-5-yl)thiophen-2-yl)acrylate]?
Answer: remaining activity at 500 µM (stock) [1]: 57.8%; remaining activity at 5000 µM (stock) [1]: 4%

Question: Which remaining activity at 500 µM (stock) [1] does the source give for Cn1nnnc1-c1cc(-c2ccc(F)cc2)sc1/C=C/C(=O)O [DNM0233, (E)-3-(5-(4-fluorophenyl)-3-(1-methyl-1H-tetrazol-5-yl)thiophen-2-yl)acrylic acid] here?
Answer: 98.8%

Question: What about the remaining activity at 5000 µM (stock) [1] of the same compound?
Answer: 47.3%

Question: COC(=O)/C=C/c1cc(-c2nnn[nH]2)c(-c2cccc3ccccc23)s1 [DNM0234, (E)-methyl 3-(5-(naphthalen-1-yl)-4-(1H-tetrazol-5-yl)thiophen-2-yl)acrylate] was tested. Which remaining activity at 500 µM (stock) [1] did it give?
Answer: 92.1%

Question: And the remaining activity at 5000 µM (stock) [1]?
Answer: 1.1%

Question: Which remaining activity at 500 µM (stock) [1] does the source give for O=C(O)/C=C/c1cc(-c2nnn[nH]2)c(-c2cccc3ccccc23)s1 [DNM0235, (E)-3-(5-(naphthalen-1-yl)-4-(1H-tetrazol-5-yl)thiophen-2-yl)acrylic acid] here?
Answer: 59.6%

Question: And the remaining activity at 5000 µM (stock) [1]?
Answer: 7.3%

Question: Which “% LpxA activity (500 μM)” value [1] does the source give for COC(=O)/C=C/c1sc(-c2ccc(-c3ccccc3)cc2)cc1-c1nnn[nH]1 [DNM0240, (E)-methyl 3-(5-(4-biphenyl)-3-(1H-tetrazol-5-yl)thiophen-2-yl)acrylate] here?
Answer: 90.7%

Question: What about the “% LpxA activity (5 mM)” value [1] of the same compound?
Answer: 6.6%

Question: Which results are given for COC(=O)/C=C/c1sc(Cc2ccccc2)cc1-c1nnn[nH]1 [DNM0243, (E)-methyl 3-(5-benzyl-3-(1H-tetrazol-5-yl)thiophen-2-yl)acrylate]?
Answer: remaining activity at 500 µM (stock) [1]: 69.2%; remaining activity at 5000 µM (stock) [1]: 0.9%

Question: Which remaining activity at 500 µM (stock) [1] does the source give for O=C(O)/C=C/c1sc(-c2ccc(-c3ccccc3)cc2)cc1-c1nnn[nH]1 [DNM0245, (E)-3-(5-(biphenyl-4-yl)-3-(1H-tetrazol-5-yl)thiophen-2-yl)acrylic acid] here?
Answer: 78.5%

Question: What about the remaining activity at 5000 µM (stock) [1] of the same compound?
Answer: 4.4%

Question: Which remaining activity at 500 µM (stock) [1] does the source give for O=C1NC(=O)C(=Cc2sc(Cc3ccccc3)cc2-c2nnn[nH]2)S1 [DNM0246, 5-((5-benzyl-3-(1H-tetrazol-5-yl)thiophen-2-yl)methylene)thiazolidine-2,4-dione] here?
Answer: 165%

Question: What about the remaining activity at 5000 µM (stock) [1] of the same compound?
Answer: 10.3%

Question: With O=C(O)/C=C/c1cc(-c2nnn(CCC(=O)O)n2)c(Cc2ccccc2)s1 [DNM0252, (E)-3-(5-benzyl-4-(2-(2-carboxyethyl)-2H-tetrazol-5-yl)thiophen-2-yl)acrylic acid] as the compound, how does the remaining activity at 500 µM (stock) [1] read?
Answer: 62.9%

Question: What about the remaining activity at 5000 µM (stock) [1] of the same compound?
Answer: 5.1%

Question: Which remaining activity at 500 µM (stock) [1] does the source give for O=C(O)C(=Cc1cc(-c2nnn[nH]2)c(Cc2ccccc2)s1)C(=O)O [DNM0264, 2-((5-benzyl-4-(1H-tetrazol-5-yl)thiophen-2-yl)methylene)malonic acid] here?
Answer: 56.8%

Question: What about the remaining activity at 5000 µM (stock) [1] of the same compound?
Answer: 5.4%

Question: How did the remaining activity at 500 µM (stock) [1] turn out when O=C(O)/C=C/c1cccc(Cc2sc(/C=C/C(=O)O)cc2-c2nnn[nH]2)c1 [DNM0270, (E)-3-(3-((5-((E)-2-carboxyvinyl)-3-(1H-tetrazol-5-yl)thiophen-2-yl)methyl)phenyl)acrylic acid] was run?
Answer: 89.7%

Question: And the remaining activity at 5000 µM (stock) [1]?
Answer: 3%

Question: With CC[C@H]1OC(=O)[C@H](C)[C@@H](O[C@H]2C[C@@](C)(OC)[C@@H](O)[C@H](C)O2)[C@H](C)[C@@H](O[C@@H]2O[C@H](C)C[C@H](N(C)C)[C@H]2O)[C@](C)(O)C[C@@H](C)C(=O)[C@H](C)[C@@H](O)[C@]1(C)O [Erythromycin] as the compound, how does the MIC [5, 6] read?
Answer: 62.5 µg/mL

Question: For NC[C@H]1O[C@H](O[C@H]2[C@H](O)[C@@H](O[C@H]3O[C@H](CO)[C@@H](O)[C@H](N)[C@H]3O)[C@H](N)C[C@@H]2N)[C@H](O)[C@@H](O)[C@@H]1O [Kanamycin], which MIC [5, 6] is on record?
Answer: 3.12 µg/mL

Question: How did the MIC [5] turn out when Gentamicin was run?
Answer: 0.39 µg/mL
